# From patent US9527869B2, “Indolizine derivatives as phoshoinositide 3-kinases inhibitors” (CHIESI FARMACEUTICI S.P.A., priority 2014, dated 2016)
# Assays:
# Type in all cases: biochemical
# PI3Kδ = molecular target: T1, PI3Kδ (Homo sapiens, UniProt O00329); assay: In vitro determination of the PI3K enzyme inhibitory activity in the cell free assay (ADP-Glo Kinase Assay), PI3Kδ; conditions: ATP 80 μM, read-out: PI3K delta inhibition
# T1 construct: purchased Millipore Ltd (Billerica, Mass.)
# Procedure, shortened: (§1)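 Human recombinant PI3K isoforms with PI/PS lipid substrates (50 μM in 2× buffer, Tris pH 7.5, DTT) were run 60 min at room temperature. Final ATP was 50 μM for α, 100 μM for β, 30 μM for γ and 80 μM for δ. ADP formation was read by ADP-Glo luminescence, and IC50 came from a four-parameter logistic fit.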
# PI3Kγ = molecular target: T2, PI3Kγ (Homo sapiens, UniProt P48736); assay: In vitro determination of the PI3K enzyme inhibitory activity in the cell free assay (ADP-Glo Kinase Assay), PI3Kγ; conditions: ATP 30 μM, read-out: PI3K gamma inhibition
# T2 construct: purchased Millipore Ltd (Billerica, Mass.)
# Procedure, shortened: as §1
# PI3Kα = molecular target: T3, PI3Kα (Homo sapiens, UniProt P42336); assay: In vitro determination of the PI3K enzyme inhibitory activity in the cell free assay (ADP-Glo Kinase Assay), PI3Kα; conditions: ATP 50 μM, read-out: PI3K alpha inhibition
# T3 construct: purchased Millipore Ltd (Billerica, Mass.)
# Procedure, shortened: as §1
# PI3Kβ = molecular target: T4, PI3Kβ (Homo sapiens, UniProt P42338); assay: In vitro determination of the PI3K enzyme inhibitory activity in the cell free assay (ADP-Glo Kinase Assay), PI3Kβ; conditions: ATP 100 μM, read-out: PI3K beta inhibition
# T4 construct: purchased Millipore Ltd (Billerica, Mass.)
# Procedure, shortened: as §1
# T3 sequence (P42336 whole entry): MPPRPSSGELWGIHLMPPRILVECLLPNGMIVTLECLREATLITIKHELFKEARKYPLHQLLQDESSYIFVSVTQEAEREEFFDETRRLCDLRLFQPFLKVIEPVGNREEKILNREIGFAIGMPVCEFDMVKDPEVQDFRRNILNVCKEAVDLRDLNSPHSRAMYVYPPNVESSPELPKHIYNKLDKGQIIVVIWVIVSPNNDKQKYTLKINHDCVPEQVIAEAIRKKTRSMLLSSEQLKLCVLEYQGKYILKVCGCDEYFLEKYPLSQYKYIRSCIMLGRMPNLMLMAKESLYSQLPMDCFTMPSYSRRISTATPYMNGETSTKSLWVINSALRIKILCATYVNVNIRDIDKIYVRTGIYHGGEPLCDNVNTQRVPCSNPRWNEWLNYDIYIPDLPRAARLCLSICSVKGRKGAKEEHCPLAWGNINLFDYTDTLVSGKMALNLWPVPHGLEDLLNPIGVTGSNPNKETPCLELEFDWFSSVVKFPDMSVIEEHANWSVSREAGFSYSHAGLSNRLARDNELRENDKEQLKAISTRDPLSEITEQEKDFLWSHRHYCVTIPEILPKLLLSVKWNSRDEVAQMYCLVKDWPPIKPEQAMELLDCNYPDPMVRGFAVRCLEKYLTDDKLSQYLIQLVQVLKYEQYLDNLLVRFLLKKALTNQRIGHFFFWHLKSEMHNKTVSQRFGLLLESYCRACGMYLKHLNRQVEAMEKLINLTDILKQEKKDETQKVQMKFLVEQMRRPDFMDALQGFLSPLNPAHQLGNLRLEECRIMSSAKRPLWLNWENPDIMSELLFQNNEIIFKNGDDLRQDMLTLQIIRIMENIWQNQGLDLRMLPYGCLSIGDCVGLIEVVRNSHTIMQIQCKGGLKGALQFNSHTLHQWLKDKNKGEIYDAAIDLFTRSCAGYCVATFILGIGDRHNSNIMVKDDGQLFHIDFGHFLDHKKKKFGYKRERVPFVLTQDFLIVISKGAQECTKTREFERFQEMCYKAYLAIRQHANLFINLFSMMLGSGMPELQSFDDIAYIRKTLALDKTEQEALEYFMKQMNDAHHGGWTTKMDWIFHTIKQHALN
# T3 sequence (P27986 whole entry partner): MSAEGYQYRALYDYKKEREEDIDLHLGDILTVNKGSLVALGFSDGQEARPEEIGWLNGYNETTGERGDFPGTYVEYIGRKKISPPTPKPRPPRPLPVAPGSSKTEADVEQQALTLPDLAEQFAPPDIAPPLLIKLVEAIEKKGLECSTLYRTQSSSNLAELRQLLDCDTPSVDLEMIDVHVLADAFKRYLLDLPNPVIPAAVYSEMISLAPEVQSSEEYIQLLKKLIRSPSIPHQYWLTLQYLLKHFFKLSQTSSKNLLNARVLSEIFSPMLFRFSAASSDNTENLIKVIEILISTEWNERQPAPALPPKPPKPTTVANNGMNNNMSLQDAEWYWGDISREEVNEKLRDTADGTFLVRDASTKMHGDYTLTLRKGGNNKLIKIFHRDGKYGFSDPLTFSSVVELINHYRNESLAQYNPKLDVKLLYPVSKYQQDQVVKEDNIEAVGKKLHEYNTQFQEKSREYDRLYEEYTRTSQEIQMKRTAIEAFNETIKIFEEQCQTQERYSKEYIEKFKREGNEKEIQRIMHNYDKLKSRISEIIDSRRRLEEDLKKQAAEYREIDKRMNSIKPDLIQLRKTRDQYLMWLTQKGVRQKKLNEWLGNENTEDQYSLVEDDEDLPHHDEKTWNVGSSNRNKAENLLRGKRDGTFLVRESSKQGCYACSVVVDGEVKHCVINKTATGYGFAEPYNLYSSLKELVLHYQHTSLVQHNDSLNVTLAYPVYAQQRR
# T4 sequence (P42338 whole entry): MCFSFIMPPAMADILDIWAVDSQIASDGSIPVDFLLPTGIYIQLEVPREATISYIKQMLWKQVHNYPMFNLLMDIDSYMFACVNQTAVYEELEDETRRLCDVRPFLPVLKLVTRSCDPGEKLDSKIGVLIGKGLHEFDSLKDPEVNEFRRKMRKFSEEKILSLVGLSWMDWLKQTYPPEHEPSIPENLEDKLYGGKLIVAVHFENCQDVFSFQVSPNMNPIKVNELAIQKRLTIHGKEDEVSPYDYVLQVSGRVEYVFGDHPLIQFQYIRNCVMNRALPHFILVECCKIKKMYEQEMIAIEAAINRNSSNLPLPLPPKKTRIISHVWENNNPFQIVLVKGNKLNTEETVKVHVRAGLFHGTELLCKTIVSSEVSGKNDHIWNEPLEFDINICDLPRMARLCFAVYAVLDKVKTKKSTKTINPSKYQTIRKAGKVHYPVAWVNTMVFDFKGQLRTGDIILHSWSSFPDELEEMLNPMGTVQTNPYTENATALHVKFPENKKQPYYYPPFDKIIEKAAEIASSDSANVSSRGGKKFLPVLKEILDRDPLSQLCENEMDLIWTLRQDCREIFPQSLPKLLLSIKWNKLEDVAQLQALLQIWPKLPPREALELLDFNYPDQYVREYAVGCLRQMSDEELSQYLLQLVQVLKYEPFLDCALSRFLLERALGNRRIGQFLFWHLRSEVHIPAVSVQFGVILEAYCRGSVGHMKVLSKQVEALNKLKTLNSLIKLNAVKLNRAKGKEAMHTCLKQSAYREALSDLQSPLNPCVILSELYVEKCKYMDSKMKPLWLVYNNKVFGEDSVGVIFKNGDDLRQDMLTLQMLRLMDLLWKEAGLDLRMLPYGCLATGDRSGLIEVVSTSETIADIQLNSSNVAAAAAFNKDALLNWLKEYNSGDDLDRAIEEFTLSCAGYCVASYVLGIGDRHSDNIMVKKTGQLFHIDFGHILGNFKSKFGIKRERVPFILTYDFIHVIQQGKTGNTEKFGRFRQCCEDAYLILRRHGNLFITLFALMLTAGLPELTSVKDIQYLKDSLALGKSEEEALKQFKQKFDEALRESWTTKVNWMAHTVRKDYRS
# T4 sequence (P27986 whole entry partner): as the sequence (P27986 whole entry partner) above
# T2 sequence (P48736 whole entry): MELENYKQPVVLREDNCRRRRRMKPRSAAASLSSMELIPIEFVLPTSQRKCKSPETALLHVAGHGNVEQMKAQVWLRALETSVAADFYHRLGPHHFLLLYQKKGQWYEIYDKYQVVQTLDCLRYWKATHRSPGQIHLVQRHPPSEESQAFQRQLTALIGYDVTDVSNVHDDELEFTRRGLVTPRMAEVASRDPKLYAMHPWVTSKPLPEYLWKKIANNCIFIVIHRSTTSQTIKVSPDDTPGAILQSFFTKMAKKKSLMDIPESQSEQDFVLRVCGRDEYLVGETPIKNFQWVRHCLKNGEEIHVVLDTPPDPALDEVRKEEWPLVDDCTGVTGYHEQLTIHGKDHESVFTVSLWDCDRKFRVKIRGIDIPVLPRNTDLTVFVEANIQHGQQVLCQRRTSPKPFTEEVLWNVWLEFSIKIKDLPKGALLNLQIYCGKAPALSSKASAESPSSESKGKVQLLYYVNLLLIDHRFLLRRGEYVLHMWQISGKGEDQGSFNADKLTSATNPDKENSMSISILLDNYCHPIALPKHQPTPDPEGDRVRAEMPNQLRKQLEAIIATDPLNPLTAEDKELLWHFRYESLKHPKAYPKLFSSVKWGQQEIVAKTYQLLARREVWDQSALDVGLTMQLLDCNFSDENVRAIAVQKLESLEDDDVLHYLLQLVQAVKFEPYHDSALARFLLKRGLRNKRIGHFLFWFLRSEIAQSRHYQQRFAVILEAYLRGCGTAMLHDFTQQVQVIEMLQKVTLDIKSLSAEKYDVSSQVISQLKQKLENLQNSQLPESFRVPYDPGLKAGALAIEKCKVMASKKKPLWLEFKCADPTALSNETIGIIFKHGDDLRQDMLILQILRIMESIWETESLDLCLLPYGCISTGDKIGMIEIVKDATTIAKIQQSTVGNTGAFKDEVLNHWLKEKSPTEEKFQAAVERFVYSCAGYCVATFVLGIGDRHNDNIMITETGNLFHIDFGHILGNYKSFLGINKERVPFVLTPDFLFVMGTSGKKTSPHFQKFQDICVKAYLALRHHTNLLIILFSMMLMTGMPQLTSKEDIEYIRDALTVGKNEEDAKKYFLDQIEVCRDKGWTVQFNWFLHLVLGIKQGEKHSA
# T1 sequence (O00329 whole entry): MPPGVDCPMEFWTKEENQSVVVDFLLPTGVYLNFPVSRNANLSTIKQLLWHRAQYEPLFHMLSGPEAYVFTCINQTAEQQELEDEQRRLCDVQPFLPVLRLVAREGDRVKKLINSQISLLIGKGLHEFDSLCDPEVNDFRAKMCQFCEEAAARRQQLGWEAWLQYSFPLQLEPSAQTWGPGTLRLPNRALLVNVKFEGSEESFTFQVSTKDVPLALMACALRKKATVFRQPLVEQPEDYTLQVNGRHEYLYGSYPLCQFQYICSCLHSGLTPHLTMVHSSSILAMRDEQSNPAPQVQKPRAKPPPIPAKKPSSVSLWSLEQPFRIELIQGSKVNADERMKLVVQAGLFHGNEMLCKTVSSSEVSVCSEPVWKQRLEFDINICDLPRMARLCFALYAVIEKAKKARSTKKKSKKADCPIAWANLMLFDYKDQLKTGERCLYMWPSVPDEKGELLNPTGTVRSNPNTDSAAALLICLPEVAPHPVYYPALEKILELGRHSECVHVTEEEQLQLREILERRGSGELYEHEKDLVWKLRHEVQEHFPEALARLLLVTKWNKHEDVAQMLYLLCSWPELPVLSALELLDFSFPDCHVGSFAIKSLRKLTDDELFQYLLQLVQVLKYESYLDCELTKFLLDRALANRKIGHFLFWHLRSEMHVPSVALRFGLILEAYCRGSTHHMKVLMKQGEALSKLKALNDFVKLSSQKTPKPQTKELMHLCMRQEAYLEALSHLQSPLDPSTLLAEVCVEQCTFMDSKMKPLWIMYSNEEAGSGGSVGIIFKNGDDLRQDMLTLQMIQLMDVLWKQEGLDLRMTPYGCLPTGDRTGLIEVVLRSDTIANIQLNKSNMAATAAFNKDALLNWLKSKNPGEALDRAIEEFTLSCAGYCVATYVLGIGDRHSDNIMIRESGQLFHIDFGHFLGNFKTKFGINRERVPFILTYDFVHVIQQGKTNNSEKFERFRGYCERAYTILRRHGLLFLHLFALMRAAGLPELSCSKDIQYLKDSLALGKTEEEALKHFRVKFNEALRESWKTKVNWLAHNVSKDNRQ
# T1 sequence (P27986 whole entry partner): as the sequence (P27986 whole entry partner) above
SMILES,IC50 (PI3Kδ),IC50 (PI3Kγ),IC50 (PI3Kα),IC50 (PI3Kβ)
"CC(Nc1ncnc(N)c1CN1CCOCC1)c1cc2ccccn2c1-c1ccccn1 (stereo not shown) [Example 57, 5-(morpholin-4-ylmethyl)-4-N-{1-[3-(pyridin-2-yl)indolizin-2-yl]ethyl}pyrimidine-4,6-diamine]",> 1000 nM,> 1000 nM,> 1000 nM,> 1000 nM
"C[C@H](c1c(C#N)c2ccccn2c1-c1cccc(CN(C)C)c1)n1nc(-c2cc(O)cc(F)c2)c2c(N)ncnc21 (single isomer, unassigned) [Example 127a, 2-{1-[4-amino-3-(3-fluoro-5-hydroxyphenyl)-1H-pyrazolo[3,4-d]pyrimidin-1-yl]ethyl}-3-{3-[(dimethylamino)methyl]phenyl}indolizine-1-carbonitrile]",< 10 nM,10 to 1000 nM,10 to 1000 nM,10 to 1000 nM
"C[C@@H](c1cc2ccccn2c1-c1ccncc1)n1nc(-c2cc(O)cc(F)c2)c2c(N)ncnc21 (single isomer, unassigned) [Example 83, 3-(4-amino-1-{1-[3-(pyridin-4-yl)indolizin-2-yl]ethyl}-1H-pyrazolo[3,4-d]pyrimidin-3-yl)-5-fluorophenol]",< 10 nM,10 to 1000 nM,10 to 1000 nM,10 to 1000 nM
"CC(c1cc2ccccn2c1-c1ccn(CCN(C)C)n1)n1nc(-c2cc(O)cc(F)c2)c2c(N)ncnc21 (stereo not shown) [Example 147, 3-{4-amino-1-[1-(3-{1-[2-(dimethylamino)-ethyl]-1H-pyrazol-3-yl}indolizin-2-yl)-ethyl]-1H-pyrazolo[3,4-d]pyrimidin-3-yl}-5-fluorophenol]",< 10 nM,> 1000 nM,10 to 1000 nM,10 to 1000 nM
"CC(c1cc2ccccn2c1-c1cscn1)n1nc(-c2cc(O)cc(F)c2)c2c(N)ncnc21 (stereo not shown) [Example 129, 3-(4-amino-1-{1-[3-(1,3-thiazol-4-yl)indolizin-2-yl]-ethyl}-1H-pyrazolo[3,4-d]pyrimidin-3-yl)-5-fluorophenol]",10 to 1000 nM,10 to 1000 nM,10 to 1000 nM,10 to 1000 nM
"CC(c1cc2ccccn2c1-c1ccc(=O)n(CCN2CCOCC2)n1)n1nc(-c2cc(O)cc(F)c2)c2c(N)ncnc21 (stereo not shown) [Example 136, 6-(2-{1-[4-amino-3-(3-fluoro-5-hydroxyphenyl)-1H-pyrazolo[3,4-d]pyrimidin-1-yl]-ethyl}indolizin-3-yl)-2-[2-(morpholin-4-yl)ethyl]-2,3-dihydropyridazin-3-one]",10 to 1000 nM,> 1000 nM,10 to 1000 nM,10 to 1000 nM
"CC(c1cc2ccccn2c1-c1ccccn1)n1nc(-c2cc(O)cc(Cl)c2)c2c(N)ncnc21 (stereo not shown) [Example 72, 3-(4-amino-1-{1-[3-(pyridin-2-yl)indolizin-2-yl]ethyl}-1H-pyrazolo[3,4-d]pyrimidin-3-yl)-5-chlorophenol]",< 10 nM,10 to 1000 nM,> 1000 nM,10 to 1000 nM
"CC(Nc1ncnc(N)c1C#N)c1cc2c(F)cccn2c1-c1ccccn1 (stereo not shown) [Example 39, 4-amino-6-({1-[8-fluoro-3-(pyridin-2-yl)indolizin-2-yl]ethyl}amino)pyrimidine-5-carbonitrile]",< 10 nM,> 1000 nM,> 1000 nM,10 to 1000 nM
"C[C@H](c1cc2ccccn2c1-c1ccc(CN(CCO)CCO)cn1)n1nc(-c2cc(O)cc(F)c2)c2c(N)ncnc21 (single isomer, unassigned) [Example 117a, 3-(4-amino-1-{1-[3-(5-{[bis(2-hydroxyethyl)amino]methyl}pyridin-2-yl)indolizin-2-yl]ethyl}-1H-pyrazolo[3,4-d]pyrimidin-3-yl)-5-fluorophenol]",< 10 nM,> 1000 nM,10 to 1000 nM,10 to 1000 nM
"CC(Nc1ncnc(N)c1C#N)c1cc2ccccn2c1C#CCO (stereo not shown) [Example 46, 4-amino-6-({1-[3-(3-hydroxyprop-1-yn-1-yl)indolizin-2-yl]ethyl}amino)pyrimidine-5-carbonitrile]",10 to 1000 nM,10 to 1000 nM,> 1000 nM,10 to 1000 nM
"CC(c1cc2ccccn2c1-c1ccncc1)n1nc(-c2cc(O)cc(F)c2)c2c(N)ncnc21 (racemic) [Example 82, 3-(4-amino-1-{1-[3-(pyridin-4-yl)indolizin-2-yl]ethyl}-1H-pyrazolo[3,4-d]pyrimidin-3-yl)-5-fluorophenol]",< 10 nM,10 to 1000 nM,> 1000 nM,10 to 1000 nM
"C[C@H](c1cc2ccccn2c1-c1ccn(CCN2CCOCC2)c(=O)c1)n1nc(-c2cc(O)cc(F)c2)c2c(N)ncnc21 (single isomer, unassigned) [Example 121a, 4-(2-{1-[4-amino-3-(3-fluoro-5-hydroxyphenyl)-1H-pyrazolo[3,4-d]pyrimidin-1-yl]ethyl}indolizin-3-yl)-1-[2-(morpholin-4-yl)ethyl]-1,2-dihydropyridin-2-one]",10 to 1000 nM,> 1000 nM,> 1000 nM,> 1000 nM
"CC(Nc1ncnc(N)c1C=O)c1cc2ccccn2c1-c1ccccn1 (stereo not shown) [Example 47, 4-amino-6-({1-[3-(pyridin-2-yl)indolizin-2-yl]ethyl}amino)pyrimidine-5-carbaldehyde]",10 to 1000 nM,> 1000 nM,> 1000 nM,10 to 1000 nM
"CC(c1cc2ccccn2c1-c1ccccn1)n1nc(-c2cc(O)cc(C#N)c2)c2c(N)ncnc21 (stereo not shown) [Example 77, 3-(4-amino-1-{1-[3-(pyridin-2-yl)indolizin-2-yl]ethyl}-1H-pyrazolo[3,4-d]pyrimidin-3-yl)-5-hydroxybenzonitrile]",< 10 nM,10 to 1000 nM,> 1000 nM,10 to 1000 nM
"N#Cc1c(N)ncnc1NCc1cc2ccccn2c1-c1cccc(F)c1 [Example 24, 4-amino-6-({[3-(3-fluorophenyl)indolizin-2-yl]methyl}amino)pyrimidine-5-carbonitrile]",10 to 1000 nM,> 1000 nM,> 1000 nM,> 1000 nM
"CC(Nc1ncnc(N)c1CO)c1cc2ccccn2c1-c1ccccn1 (stereo not shown) [Example 56, [4-amino-6-({1-[3-(pyridin-2-yl)indolizin-2-yl]ethyl}amino)pyrimidin-5-yl]methanol]",> 1000 nM,> 1000 nM,> 1000 nM,> 1000 nM
"CC(Nc1ncnc(N)c1C#N)c1cc2ccccn2c1-c1ccncc1 (stereo not shown) [Example 36, 4-amino-6-({1-[3-(pyridin-4-yl)indolizin-2-yl]ethyl}amino)pyrimidine-5-carbonitrile]",10 to 1000 nM,10 to 1000 nM,> 1000 nM,10 to 1000 nM
"CC(c1cc2ccccn2c1C1=CCNCC1)n1nc(-c2cc(O)cc(F)c2)c2c(N)ncnc21 (stereo not shown) [Example 101, 3-(4-amino-1-{1-[3-(1,2,3,6-tetrahydropyridin-4-yl)indolizin-2-yl]ethyl}-1H-pyrazolo[3,4-d]pyrimidin-3-yl)-5-fluorophenol]",10 to 1000 nM,> 1000 nM,> 1000 nM,10 to 1000 nM
"CC(c1cc2ccccn2c1-c1ccccn1)n1nc(-c2cccnc2)c2c(N)ncnc21 (stereo not shown) [Example 68, 1-{1-[3-(pyridin-2-yl)indolizin-2-yl]ethyl}-3-(pyridin-3-yl)-1H-pyrazolo[3,4-d]pyrimidin-4-amine]",10 to 1000 nM,> 1000 nM,> 1000 nM,> 1000 nM
"CC(Nc1ncnc(N)c1C#N)c1cc2ccccn2c1C1=CCOCC1 (stereo not shown) [Example 42, 4-amino-6-({1-[3-(3,6-dihydro-2H-pyran-4-yl)indolizin-2-yl]ethyl}amino)pyrimidine-5-carbonitrile]",10 to 1000 nM,> 1000 nM,> 1000 nM,10 to 1000 nM
"CC(c1cc2ccccn2c1-c1ccc(CN(CCO)CCO)cn1)n1nc(-c2cc(O)cc(F)c2)c2c(N)ncnc21 (stereo not shown) [Example 117, 3-(4-amino-1-{1-[3-(5-{[bis(2-hydroxyethyl)amino]methyl}pyridin-2-yl)indolizin-2-yl]ethyl}-1H-pyrazolo[3,4-d]pyrimidin-3-yl)-5-fluorophenol]",< 10 nM,> 1000 nM,> 1000 nM,10 to 1000 nM
"COc1cc(F)cc(-c2nn(C(C)c3cc4ccccn4c3-c3ccccn3)c3ncnc(N)c23)c1 (stereo not shown) [Example 62, 3-(3-fluoro-5-methoxyphenyl)-1-{1-[3-(pyridin-2-yl)indolizin-2-yl]ethyl}-1H-pyrazolo[3,4-d]pyrimidin-4-amine]",10 to 1000 nM,> 1000 nM,> 1000 nM,> 1000 nM
"Nc1ncnc2c1ncn2Cc1cc2ccccn2c1 [Example 9, 9-(indolizin-2-ylmethyl)-9H-purin-6-amine]",> 1000 nM,> 1000 nM,> 1000 nM,> 1000 nM
"CC(c1cc2ccccn2c1-c1ccc(OCCN(C)C)nn1)n1nc(-c2cc(O)cc(F)c2)c2c(N)ncnc21 (stereo not shown) [Example 138, 3-{4-amino-1-[1-(3-{6-[2-(dimethylamino)-ethoxy]pyridazin-3-yl}indolizin-2-yl)-ethyl]-1H-pyrazolo[3,4-d]pyrimidin-3-yl}-5-fluorophenol]",< 10 nM,10 to 1000 nM,10 to 1000 nM,10 to 1000 nM
"CNC(=O)c1c(N)ncnc1NC(C)c1cc2ccccn2c1-c1ccccn1 (stereo not shown) [Example 51, 4-amino-N-methyl-6-({1-[3-(pyridin-2-yl)indolizin-2-yl]ethyl}amino)pyrimidine-5-carboxamide]",10 to 1000 nM,> 1000 nM,> 1000 nM,> 1000 nM
